Measured values: US7435837B2, “Dihydrobenzofuranyl alkanamine derivatives and methods for using same” (Wyeth, priority 2003, dated 2008)
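Wherever 5-HT2C Function Emax (%) is given: Fluo-3-AM fluorescence read on FLIPR every 1 s, agonist added after 10 baseline reads, response taken as peak minus lowest raw fluorescence count.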
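Wherever EC50 is given: Fluo-3-AM fluorescence read on FLIPR every 1 s, agonist added after 10 baseline reads, response taken as peak minus lowest raw fluorescence count.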

Each compound was assayed against T1, human 5-HT2C receptor (Homo sapiens, UniProt P28335) (assay: 5-HT2C receptor-stimulated calcium mobilization (FLIPR) in CHO cells). Details: CHO, percentage of the response observed with a maximally effective concentration of 5-HT; read-out: 5-HT2C Function Emax (%).
T1 sequence (P28335 33-458): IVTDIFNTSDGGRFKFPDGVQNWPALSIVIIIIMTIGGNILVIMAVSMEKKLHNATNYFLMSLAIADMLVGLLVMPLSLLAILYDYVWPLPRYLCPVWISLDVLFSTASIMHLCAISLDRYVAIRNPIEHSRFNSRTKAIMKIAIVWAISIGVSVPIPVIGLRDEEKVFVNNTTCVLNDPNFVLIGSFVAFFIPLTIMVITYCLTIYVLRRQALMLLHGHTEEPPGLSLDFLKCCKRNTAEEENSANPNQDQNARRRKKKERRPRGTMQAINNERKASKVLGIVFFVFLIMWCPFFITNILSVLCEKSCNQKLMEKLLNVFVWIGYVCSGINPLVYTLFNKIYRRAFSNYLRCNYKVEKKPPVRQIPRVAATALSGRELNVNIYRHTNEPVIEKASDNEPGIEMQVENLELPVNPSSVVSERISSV
Type: cell-based
For NCC1Cc2cc(Cl)cc(-c3ccc(Cl)cc3Cl)c2O1 (racemic) [Example 251, (±)-{[5-chloro-7-(2,4-dichlorophenyl)-2,3-dihydro-1-benzofuran-2-yl]methyl}amine], the Emax was 90%.
NCC1Cc2cc(F)cc(-c3c(Cl)cccc3Cl)c2O1 (single isomer, unassigned; (+)) [Example 551, (+)-{[7-(2,6 dichlorophenyl)-5-fluoro-2,3-dihydro-1-benzofuran-2-yl]methyl}amine] gave an Emax of 90%.

Same assay, conditions: calcium mobilization, CHO cells stably expressing human 5-HT2C; read-out: 5-HT2C Function EC50
Compound NCC1Cc2cc(Cl)cc(-c3ccc(Cl)cc3Cl)c2O1 (racemic) [Example 251, (±)-{[5-chloro-7-(2,4-dichlorophenyl)-2,3-dihydro-1-benzofuran-2-yl]methyl}amine] has an EC50 of 8 nM.
With NCC1Cc2cc(F)cc(-c3c(Cl)cccc3Cl)c2O1 (single isomer, unassigned; (+)) [Example 551, (+)-{[7-(2,6 dichlorophenyl)-5-fluoro-2,3-dihydro-1-benzofuran-2-yl]methyl}amine] the EC50 was 17 nM.

These compounds were tested against T2, human 5-hydroxytryptamine-2C (h5-HT2C) receptor (Homo sapiens, UniProt P28335) (assay: [125I]DOI binding to membranes of CHO cells expressing the human 5-HT2C receptor). Details: [125I]DOI radioligand, CHO cell membranes, room temperature 60 min; read-out: 5-HT2C Affinity Ki.
T2 construct: expressed in transfected cells; host or cells: CHO (Chinese Hamster Ovary) cells; membranes
T2 sequence (P28335 33-458): T1 sequence (P28335 33-458)
In the case of NCC1Cc2cc(Cl)cc(-c3ccc(Cl)cc3Cl)c2O1 (racemic) [Example 251, (±)-{[5-chloro-7-(2,4-dichlorophenyl)-2,3-dihydro-1-benzofuran-2-yl]methyl}amine], the Ki is reported as 0.38 nM.
With NCC1Cc2cc(F)cc(-c3c(Cl)cccc3Cl)c2O1 (single isomer, unassigned; (+)) [Example 551, (+)-{[7-(2,6 dichlorophenyl)-5-fluoro-2,3-dihydro-1-benzofuran-2-yl]methyl}amine] the Ki was 0.55 nM.
With NCCC1Cc2ccc(Cl)c(-c3ccccc3Cl)c2O1 (racemic) [Example 552, (±)-{2-[6-chloro-7-(2-chlorophenyl)-2,3-dihydro-1 benzofuran-2-yl]ethyl}amine] the Ki was 0.3 nM.
In the case of CNCC1Cc2cc(C(F)(F)F)cc(-c3cc(C(F)(F)F)cc(C(F)(F)F)c3)c2O1 (racemic) [Example 527, (±)-{[7-[3,5-bis(trifluoromethyl)phenyl]-5-(trifluoromethyl)-2,3-dihydro-1-benzofuran-2-yl]methyl}methylamine], the Ki is reported as 4740 nM.
Work on Cc1cccc(-c2cc(Cl)cc3c2OC(CN)C3)c1 (racemic) [Example 88, (±)-1-[5-chloro-7-(3-methylphenyl)-2,3-dihydro-1-benzofuran-2-yl]methanamine] yielded a Ki of 48 nM.
For CC1(CN)Cc2cc(Cl)cc(-c3ccccc3)c2O1 (racemic) [Example 112, (±)-1-(5-chloro-2-methyl-7-phenyl-2,3-dihydro-1-benzofuran-2-yl)methanamine], the Ki was 55 nM.
In the case of COc1cc2c(c(C(C)(C)C)c1)OC(CN)C2 (single isomer, unassigned; (+)) [Example 116, (+)-1-(7-tert-butyl-5-methoxy-2,3-dihydro-1-benzofuran-2-yl)methanamine], the Ki is reported as 527 nM.
In the case of CC(C)(C)/C=C/c1cccc2c1OC(CN)C2 (racemic) [Example 117, (±)-1-{7-[(1E)-3,3-dimethylbut-1-enyl]-2,3-dihydro-1-benzofuran-2-yl}methanamine], the Ki is reported as 263 nM.
Cc1cccc(-c2cc(C(F)(F)F)cc3c2OC(CN)C3)c1C (racemic) [Example 328, (±)-{[7-(2,3-dimethylphenyl)-5-(trifluoromethyl)-2,3-dihydro-1-benzofuran-2-yl]methyl}amine] showed a Ki of 61 nM.
Work on Cc1ccc(Nc2cccc3c2OC(CN)C3)cc1 (racemic) [Example 174, (±)-N-[2-(aminomethyl)-2,3-dihydro-1-benzofuran-7-yl]-N-(4-methylphenyl)amine] yielded a Ki of 203 nM.
In the case of CCCCc1ccc(-c2cc(C(F)(F)F)cc3c2OC(CN)C3)cc1 (racemic) [Example 339, (±)-{[7-(4-butylphenyl)-5-(trifluoromethyl)-2,3-dihydro-1-benzofuran-2-yl]methyl}amine], the Ki is reported as 328 nM.
Compound NCC1Cc2cccc(-c3ccc(F)c(Cl)c3)c2O1 (racemic) [Example 34, (±)-1-[7-(3-chloro-4-fluorophenyl)-2,3-dihydro-1-benzofuran-2-yl]methanamine] has a Ki of 37 nM.
NCC1Cc2cccc(-c3ccccc3F)c2O1 (single isomer, unassigned; (-)) [Example 52, (−)-1-[7-(2-fluorophenyl)-2,3-dihydro-1-benzofuran-2-yl]methanamine] gave a Ki of 13 nM.
Work on NCC1Cc2c(cccc2-c2ccccc2C(F)(F)F)O1 (single isomer, unassigned; (-)) [Example 123, (−)-1-{4-[2-(trifluoromethyl)phenyl]-2,3-dihydro-1-benzofuran-2-yl}methanamine] yielded a Ki of 207 nM.
Work on NCC1Cc2cccc(Nc3ccc(F)c(Cl)c3)c2O1 (racemic) [Example 193, (±)-N-[2-(aminomethyl)-2,3-dihydro-1-benzofuran-7-yl]-N-(3-chloro-4-fluorophenyl)amine] yielded a Ki of 246 nM.
Compound CNCC1Cc2cc(Cl)cc(-c3ccsc3)c2O1 (single isomer, unassigned; (-)) [Example 94, (−)-N-[(5-chloro-7-thien-3-yl-2,3-dihydro-1-benzofuran-2-yl)methyl]-N-methylamine] has a Ki of 176 nM.
CNCC1Cc2cc(Cl)cc(C3CCCCC3)c2O1 (racemic) [Example 12, (±)-N-[(5-chloro-7-cyclohexyl-2,3-dihydro-1-benzofuran-2-yl)methyl]-N-methylamine] gave a Ki of 127 nM.
NCC1Cc2cccc(-c3ccc(F)cc3)c2O1 (single isomer, unassigned; (-)) [Example 75, (−)-1-[7-(4-fluorophenyl)-2,3-dihydro-1-benzofuran-2-yl]methanamine] gave a Ki of 103 nM.
Work on NCC1Cc2cccc(Nc3cc(Cl)cc(Cl)c3)c2O1 (racemic) [Example 189, (±)-N-[2-(aminomethyl)-2,3-dihydro-1-benzofuran-7-yl]-N-(3,5-dichlorophenyl)amine] yielded a Ki of 363 nM.
NCC1Cc2cc(C(F)(F)F)cc(-c3cccc(F)c3)c2O1 (racemic) [Example 319, (±)-{[5-(trifluoromethyl)-7-(3-fluorophenyl)-2,3-dihydro-1-benzofuran-2-yl]methyl}amine] gave a Ki of 83 nM.
In the case of CC(C)(C)c1cccc2c1OC(CN)C2 (racemic) [Example 24, (±)-1-(7-tert-butyl-2,3-dihydro-1-benzofuran-2-yl)methanamine], the Ki is reported as 36 nM.
Work on Cc1cc2c(c(-c3c(Cl)cccc3Cl)c1)OC(CN)C2 (single isomer, unassigned; (+)) [Example 304, (+)-{[7-(2,6-dichlorophenyl)-5-methyl-2,3-dihydro-1-benzofuran-2-yl]methyl}amine] yielded a Ki of 1.7 nM.
Cc1ccccc1-c1c(F)ccc2c1OC(CN)C2 (single isomer, unassigned; (-)) [Example 397, (−)-{[6-fluoro-7-(2-methylphenyl)-2,3-dihydro-1-benzofuran-2-yl]methyl}amine] was tested, and the Ki was 1.6 nM.
NCC1Cc2cc(Cl)cc(-c3ccsc3)c2O1 (single isomer, unassigned; (+)) [Example 92, (+)-(5-chloro-7-thien-3-yl-2,3-dihydro-1-benzofuran-2-yl)methylamine] showed a Ki of 62 nM.
COc1cc2c(c(C(C)(C)C)c1)OC(CN)C2 (racemic) [Example 13, (±)-(7-tert-butyl-5-methoxy-2,3-dihydro-1-benzofuran-2-yl)methylamine] gave a Ki of 133 nM.
Compound CNCC1Cc2cc(C(F)(F)F)cc(-c3cccc(Cl)c3Cl)c2O1 (racemic) [Example 524, (±)-N-methyl-1-[7-(2,3-dichlorophenyl)-5-(trifluoromethyl)-2,3-dihydro-1-benzofuran-2-yl]methanamine] has a Ki of 136 nM.
Compound COc1cccc2c1OC(CN)C2 (racemic) [Example 7, (±)-1-(7-methoxy-2,3-dihydro-1-benzofuran-2-yl)methanamine] has a Ki of 160 nM.
Cc1ccc(-c2cc(-c3ccccc3)cc3c2OC(CN)C3)cc1 (racemic) [Example 353, (±)-{[7-(4-methylphenyl)-5-phenyl-2,3-dihydro-1-benzofuran-2-yl]methyl}amine] showed a Ki of 845 nM.
Compound NCC1Cc2cc(C(F)(F)F)cc(-c3ccccc3C(F)(F)F)c2O1 (racemic) [Example 317, (±)-{[5-(trifluoromethyl)-7-(2-(trifluoromethyl)phenyl)-2,3-dihydro-1-benzofuran-2-yl]methyl}amine] has a Ki of 84 nM.
With CNCC1Cc2cc(-c3ccccc3)cc(-c3ccc(OC)cc3)c2O1 (racemic) [Example 516, (±)-{[7-(4-methoxyphenyl)-5-phenyl-2,3-dihydro-1-benzofuran-2-yl]methyl}methylamine] the Ki was 1580 nM.
NCC1Cc2c(cccc2-c2ccccc2C(F)(F)F)O1 (single isomer, unassigned; (+)) [Example 124, (+)-1-{4-[2-(trifluoromethyl)phenyl]-2,3-dihydro-1-benzofuran-2-yl}methanamine] was tested, and the Ki was 53 nM.
CCNC[C@H]1Cc2cc(F)cc(-c3c(Cl)cccc3Cl)c2O1 [Example 546, (R)-[7-(2,6-dichloro-phenyl)-5-fluoro-2,3-dihydro-benzofuran-2-ylmethyl]ethylamine] was tested, and the Ki was 2.3 nM.
In the case of NCC1Cc2cccc(Nc3ccc(Cl)c(Cl)c3)c2O1 (racemic) [Example 179, (±)-N-[2-(aminomethyl)-2,3-dihydro-1-benzofuran-7-yl]-N-(3,4-dichlorophenyl)amine], the Ki is reported as 435 nM.
Work on COc1cc2c(c(-c3ccccc3C)c1)OC(CN)C2 (racemic) [Example 358, (±)-{[7-(2-methylphenyl)-5-methoxy-2,3-dihydro-1-benzofuran-2-yl]methyl}amine] yielded a Ki of 7 nM.
In the case of NCC1Cc2cc(-c3ccccc3)cc(-c3ccccc3Cl)c2O1 (racemic) [Example 345, (±)-{[7-(2-chlorophenyl)-5-phenyl-2,3-dihydro-1-benzofuran-2-yl]methyl}amine], the Ki is reported as 98 nM.
CNCC1Cc2cc(C(F)(F)F)cc(-c3ccc(F)c(F)c3)c2O1 (racemic) [Example 522, (±)-N-methyl-1-[7-(3,4-difluorophenyl)-5-(trifluoromethyl)-2,3-dihydro-1-benzofuran-2-yl]methanamine] gave a Ki of 474 nM.

Same assay, conditions: reference compounds; 95% confidence interval in parentheses; [125I]DOI radioligand; read-out: Ki
CSc1ccc2c(c1)C(N1CCN(C)CC1)Cc1ccccc1S2 (centres unmarked) [Methiothepin, reference compound] showed a Ki of 4.6 nM.
